Results on 19 compounds are retold here after patent publication US7348350B2, “Pyrazolyl biphenyl carboxamides and the use thereof for controlling undesirable microorganisms” (Bayer CropScience AG, priority 2000, dated 2008).

One data set deals with Sphaerotheca fuiginea. Description: Sphaerotheca test (cucumber)/protective. In kind it is in vivo. Conditions: Cucumis sativus, 240 h, protective, application rate 100 g/ha, evaluation 10 days after inoculation, read-out: % efficacy. As to the method: (§1) To produce a suitable preparation of active compound, 1 part by weight of active compound is mixed with the stated amounts of solvent and emulsifier, and the concentrate is diluted with water to the desired concentration.
To test for protective activity, young plants are sprayed with the preparation of active compound at the stated application rate. After the spray coating has dried on, the plants are inoculated with an aqueous spore suspension of Sphaerotheca fuiginea. The plants are then placed in a greenhouse at approximately 23° C. and a relative atmospheric humidity of approximately 70%.
(§2) Evaluation is carried out 10 days after the inoculation. 0% means an efficacy which corresponds to that of the control, whereas an efficacy of 100% means that no infection is observed.

The subject of another data set is Podosphaera leucotricha. The data set can be described thus: Podosphaera test (apple)/protective. In kind it is in vivo. The conditions noted are these: 240 h, protective, application rate 100 g/ha, evaluation 10 days after inoculation, read-out: % efficacy. The method, then: as §1
To test for protective activity, young plants are sprayed with the preparation of active compound at the stated application rate. After the spray coating has dried on, the plants are inoculated with an aqueous spore suspension of the apple mildew pathogen Podosphaera leucotricha. The plants are then placed in a greenhouse at approximately 23° C. and a relative atmospheric humidity of approximately 70%.
as §2

The next data set concerns Alternaria solani. The data set can be described thus: Alternaria test (tomato)/protective. In kind it is in vivo. Conditions: protective, application rate 750 g/ha, evaluation 7 days after inoculation. As to the method: as §1
To test for protective activity, young tomato plants are sprayed with the preparation of active compound at the stated application rate. 1 day after the treatment, the plants are inoculated with a spore suspension of Alternaria solani and then remain at 100% rel. humidity and 20° C. for 24 h. The plants then remain at 96% rel. atmospheric humidity and a temperature of 20° C.
Evaluation is carried out 7 days after the inoculation. 0% means an efficacy which corresponds to that of the control, whereas an efficacy of 100% means that no infection is observed.

The next data set has as its system Venturia inaequalis. Description: Venturia test (apple)/protective. In kind it is in vivo. Conditions: 288 h, protective, application rate 100 g/ha, evaluation 12 days after inoculation, read-out: % efficacy. As to the method:
To produce a suitable preparation of active compound, 1 part by weight of active compound is mixed with the stated amount of solvent and emulsifier, and the concentrate is diluted with water to the desired concentration.
To test for protective activity, young plants are sprayed with the preparation of active compound at the stated application rate. After the spray coating has dried on, the plants are inoculated with an aqueous conidia suspension of the apple scab pathogen Venturia inaequalis and then remain in an incubation cabin at approximately 20° C. and 100% relative atmospheric humidity for 1 day.
The plants are then placed in a greenhouse at approximately 21° C. and a relative atmospheric humidity of approximately 90%.
Evaluation is carried out 12 days after the inoculation. 0% means an efficacy which corresponds to that of the control, whereas an efficacy of 100% means that no infection is observed.

For data set [1], the system named is Gloeophyllum trabeum, Coniophora puteana, Poria placenta, Lentinus tigrinus and Coriolus versicolor. The data set can be described thus: Inhibition test on giant colonies of Basidiomycetes. In kind it is cell-based. Conditions: 6 ppm active compound in malt extract peptone agar, 26° C.; read-out: % efficacy (percent inhibition of hyphal growth). The method, then:
Inhibition Test on Giant Colonies of Basidiomycetes Mycelium sections were removed from colonies of Gloeophyllum trabeum, Coniophora puteana, Poria placenta, Lentinus tigrinus and Coriolus versicolor and incubated on an agar medium containing malt extract peptone at 26° C. The inhibition of hyphal growth on active-compound-containing media was compared with the longitudinal growth on media without an addition of active compound and rated as percent inhibition.

In another data set the test system is Puccinia recondita. The data set can be described thus: Puccinia test (wheat)/protective. In kind it is in vivo. The conditions noted are these: protective, application rate 250 g/ha, evaluation 10 days after inoculation. As to the method: as §1
To test for protective activity, young plants are sprayed with the preparation of active compound at the stated application rate. After the spray coating has dried on, the plants are sprayed with a conidia suspension of Puccinia recondita. The plants remain in an incubation cabin at 20° C. and 100% relative atmospheric humidity for 48 hours.
The plants are then placed in a greenhouse at a temperature of approximately 20° C. and a relative atmospheric humidity of 80% to promote the development of rust pustules.
as §2

Data set [2] in a line: logP by HPLC on reversed-phase column (C 18), EEC Directive 79/831 Annex V.A8. The conditions noted are these: reversed-phase HPLC column (C 18); acidic range, pH 2.3, 0.1% aqueous phosphoric acid and acetonitrile, 43° C. (marked a). In kind it is physicochemical. As to the method: The logP values given in the Preparation Examples and Tables above were determined in accordance with EEC Directive 79/831 Annex V.A8 by HPLC (High Performance Liquid Chromatography) on a reversed-phase column (C 18). Temperature: 43° C.
In the acidic range, the determination was carried out at pH 2.3 using the mobile phases 0.1% aqueous phosphoric acid and acetonitrile; linear gradient from 10% acetonitrile to 90% acetonitrile (marked ^a) in the Table).
In the neutral range, the determination was carried out at pH 7.5 using the mobile phases 0.01 molar aqueous phosphate buffer solution and acetonitrile; linear gradient from 10% acetonitrile to 90% acetonitrile (marked ^b) in the Table).

Take `CO/N=C/c1ccc(-c2ccccc2NC(=O)c2c(C)nn(C)c2F)cc1` [Example 1, 5-fluoro-N-{4′-[(methoxyimino)methyl]-1,1′-biphenyl-2-yl}-1,3-dimethyl-1H-pyrazole-4-carboxamide]: the pest or weed control at 100 g/ha in the data set with Sphaerotheca fuiginea, in the data set with Podosphaera leucotricha and in the data set with Venturia inaequalis was 100% each time. Moreover, the results for the “% efficacy” value with Alternaria solani and with Puccinia recondita were 95% and 100%, respectively. Also, in data set [1], the Emax at 6 ppm was 100%.
As to `CO/N=C/c1ccc(-c2cc(F)cc(F)c2NC(=O)c2c(C)nn(C)c2F)cc1` [Example 2, N-{3,5-difluoro-4′-[(methoxyimino)methyl]-1,1′-biphenyl-2-yl}-5-fluoro-1,3-dimethyl-1H-pyrazole-4-carboxamide], the “% efficacy” value in the data set with Alternaria solani is 90%.
Regarding `CO/N=C/c1ccc(-c2ccccc2NC(=O)c2c(C)nn(C)c2F)cc1F` [Example 3, 5-fluoro-N-{3′-fluoro-4′-[(methoxyimino)methyl]-1,1′-biphenyl-2-yl}-1,3-dimethyl-1H-pyrazole-4-carboxamide], in data set [1], the Emax at 6 ppm is 100%. For the same compound, the “% efficacy” value in the data set with Puccinia recondita is on record as 100%.
In the case of `CO/N=C(\C)c1ccc(-c2ccccc2NC(=O)c2c(C)nn(C)c2F)cc1` [Example 4, 5-fluoro-N-[4′-(N-methoxyethaneimidoyl)-1,1′-biphenyl-2-yl]-1,3-dimethyl-1H-pyrazole-4-carboxamide], the “% efficacy” value in the data set with Alternaria solani is 90%. Besides, the Emax at 6 ppm in data set [1] came to 100%.
As to `CO/N=C/c1cccc(-c2ccccc2NC(=O)c2c(C)nn(C)c2F)c1` [Example 5], the “% efficacy” value in the data set with Alternaria solani is reported as 90%.
With `CO/N=C(\C)c1cccc(-c2ccccc2NC(=O)c2c(C)nn(C)c2F)c1` [Example 7], the “% efficacy” value with Alternaria solani worked out at 100%. In addition, the chromatographic logP in data set [2] was found to be 3.2.
Turning to `CO/N=C/c1ccc(-c2ccc(F)cc2NC(=O)c2c(C)nn(C)c2F)cc1` [Example 8], the pest or weed control at 100 g/ha amounted to 98% in the data set with Podosphaera leucotricha and 99% in the data set with Venturia inaequalis. Besides, the chromatographic logP in data set [2] was 3.39.
`CO/N=C/c1ccc(-c2cccc(F)c2NC(=O)c2c(C)nn(C)c2F)cc1` [Example 9]: the chromatographic logP in data set [2] stood at 2.51. Further, the Emax at 6 ppm in data set [1] turned out to be 100%. For the same compound, in the data set with Puccinia recondita, the “% efficacy” value turned out to be 100%.
For the compound `CCO/N=C/c1ccc(-c2cc(F)cc(F)c2NC(=O)c2c(C)nn(C)c2F)cc1` [Example 11], the pest or weed control at 100 g/ha was 93% with Sphaerotheca fuiginea, 100% in the data set with Podosphaera leucotricha and 100% in the data set with Venturia inaequalis. Besides, the chromatographic logP in data set [2] turned out to be 3.05.
`C/C(=N\OC(C)C)c1ccc(-c2ccccc2NC(=O)c2c(C)nn(C)c2F)cc1` [Example 20]: the results for the pest or weed control at 100 g/ha with Sphaerotheca fuiginea, in the data set on Podosphaera leucotricha and with Venturia inaequalis were 77%, 95% and 100%, respectively. For the same compound, the “% efficacy” value in the data set on Puccinia recondita was determined as 100%.
With `CCO/N=C(\C)c1ccc(-c2ccccc2NC(=O)c2c(C)nn(C)c2F)cc1` [Example 22], the figures for the pest or weed control at 100 g/ha with Sphaerotheca fuiginea, in the data set on Podosphaera leucotricha and in the data set on Venturia inaequalis were 95%, 99% and 100%, respectively. Moreover, the “% efficacy” value in the data set on Puccinia recondita was 100%.
Regarding `Cc1nn(C)c(F)c1C(=O)Nc1ccccc1-c1ccc(/C=N/OC(C)C)cc1` [Example 23], the pest or weed control at 100 g/ha in the data set on Sphaerotheca fuiginea turned out to be 95%; in the data set with Podosphaera leucotricha, 100%; in the data set on Venturia inaequalis, 100%.
Consider `CO/N=C/c1ccc(-c2ccccc2NC(=O)c2c(C)nn(C)c2F)c(C)c1` [Example 26], for which the pest or weed control at 100 g/ha in the data set on Sphaerotheca fuiginea came to 95%; with Podosphaera leucotricha, 100%; in the data set on Venturia inaequalis it was 100%. The chromatographic logP in data set [2] turned out to be 3.4. The “% efficacy” value with Puccinia recondita is 100%.
For `CO/N=C/c1ccc(-c2c(C)cccc2NC(=O)c2c(C)nn(C)c2F)cc1` [Example 29], the pest or weed control at 100 g/ha with Sphaerotheca fuiginea was determined as 83%; in the data set on Podosphaera leucotricha, 94%; with Venturia inaequalis, 100%. In data set [2], this compound returned a chromatographic logP of 3.39.
The like results for `CO/N=C/c1ccc(-c2cc(F)ccc2NC(=O)c2c(C)nn(C)c2F)cc1` [Example 37] were, in that order, 77%, 100%, 100% and 3.01.
For `CCO/N=C/c1ccc(-c2ccccc2NC(=O)c2c(C)nn(C)c2F)c(C)c1` [Example 39] the same measures were 97%, 100%, 100% and 3.91.
For `CO/N=C/c1ccc(-c2ccccc2NC(=O)c2c(C)nn(C)c2F)cc1Cl` [Example 46] the same measures were 100%, 100%, 100% and 3.47.
`CO/N=C/c1ccc(-c2ccccc2NC(=O)c2c(C)nn(C)c2F)cc1C` [Example 47]: the pest or weed control at 100 g/ha in the data set on Sphaerotheca fuiginea, in the data set with Podosphaera leucotricha and in the data set on Venturia inaequalis was 100% throughout. The compound also had a chromatographic logP in data set [2] of 3.3.
For `CO/N=C/c1ccc(-c2c(C)cccc2NC(=O)c2c(C)nn(C)c2F)cc1Cl` [Example 50], the pest or weed control at 100 g/ha with Sphaerotheca fuiginea, in the data set on Podosphaera leucotricha and in the data set with Venturia inaequalis was 100% in each case. For the same compound, the chromatographic logP in data set [2] amounted to 3.89.

What is called chromatographic logP is lipophilicity estimated from chromatographic retention. A lower chromatographic logP goes with a more hydrophilic compound.
